Our source for the residual activity values is the kinase profiling compilation of Christmann-Franck et al. (2016).

SMILES strings stand for the structures.

Sequence of DYRK2 (human) (Q92630 whole entry, looked up): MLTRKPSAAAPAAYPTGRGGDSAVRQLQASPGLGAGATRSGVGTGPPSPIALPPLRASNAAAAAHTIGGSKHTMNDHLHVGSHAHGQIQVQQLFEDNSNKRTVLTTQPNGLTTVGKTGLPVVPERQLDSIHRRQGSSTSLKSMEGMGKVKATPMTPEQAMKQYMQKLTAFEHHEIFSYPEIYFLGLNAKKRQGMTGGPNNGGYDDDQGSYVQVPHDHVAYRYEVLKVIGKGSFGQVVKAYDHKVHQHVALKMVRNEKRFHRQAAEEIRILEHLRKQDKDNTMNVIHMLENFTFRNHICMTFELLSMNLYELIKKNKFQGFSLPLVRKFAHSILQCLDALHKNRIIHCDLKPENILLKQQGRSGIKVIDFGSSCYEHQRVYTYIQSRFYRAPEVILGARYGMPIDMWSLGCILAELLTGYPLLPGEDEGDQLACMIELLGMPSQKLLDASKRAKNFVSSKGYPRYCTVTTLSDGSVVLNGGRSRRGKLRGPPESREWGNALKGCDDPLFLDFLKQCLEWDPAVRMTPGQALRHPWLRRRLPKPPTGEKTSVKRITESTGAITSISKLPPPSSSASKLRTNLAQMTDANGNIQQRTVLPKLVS
Sequence of FES (human) (P07332 whole entry, looked up): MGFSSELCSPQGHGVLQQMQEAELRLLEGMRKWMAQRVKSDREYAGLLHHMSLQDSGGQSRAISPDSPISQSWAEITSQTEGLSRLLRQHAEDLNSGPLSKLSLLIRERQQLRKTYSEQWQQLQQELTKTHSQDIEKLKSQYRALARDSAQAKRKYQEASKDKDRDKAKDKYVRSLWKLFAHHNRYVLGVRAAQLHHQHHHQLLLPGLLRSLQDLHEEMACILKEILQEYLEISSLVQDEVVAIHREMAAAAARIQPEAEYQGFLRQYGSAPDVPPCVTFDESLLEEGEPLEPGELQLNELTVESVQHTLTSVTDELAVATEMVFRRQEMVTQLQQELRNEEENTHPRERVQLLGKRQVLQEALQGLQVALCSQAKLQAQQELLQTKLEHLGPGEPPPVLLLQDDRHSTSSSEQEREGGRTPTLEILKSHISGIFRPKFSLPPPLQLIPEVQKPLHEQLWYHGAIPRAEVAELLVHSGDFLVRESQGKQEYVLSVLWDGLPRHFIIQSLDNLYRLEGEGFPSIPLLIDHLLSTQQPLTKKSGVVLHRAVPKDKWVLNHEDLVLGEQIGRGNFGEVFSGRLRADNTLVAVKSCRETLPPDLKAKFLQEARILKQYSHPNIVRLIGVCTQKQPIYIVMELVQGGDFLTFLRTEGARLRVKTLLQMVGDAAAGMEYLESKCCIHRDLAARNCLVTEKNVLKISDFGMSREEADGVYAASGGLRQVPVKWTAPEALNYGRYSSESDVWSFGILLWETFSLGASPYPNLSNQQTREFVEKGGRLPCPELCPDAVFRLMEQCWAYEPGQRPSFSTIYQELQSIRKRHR
Sequence of BRSK2 (human) (Q8IWQ3 whole entry, looked up): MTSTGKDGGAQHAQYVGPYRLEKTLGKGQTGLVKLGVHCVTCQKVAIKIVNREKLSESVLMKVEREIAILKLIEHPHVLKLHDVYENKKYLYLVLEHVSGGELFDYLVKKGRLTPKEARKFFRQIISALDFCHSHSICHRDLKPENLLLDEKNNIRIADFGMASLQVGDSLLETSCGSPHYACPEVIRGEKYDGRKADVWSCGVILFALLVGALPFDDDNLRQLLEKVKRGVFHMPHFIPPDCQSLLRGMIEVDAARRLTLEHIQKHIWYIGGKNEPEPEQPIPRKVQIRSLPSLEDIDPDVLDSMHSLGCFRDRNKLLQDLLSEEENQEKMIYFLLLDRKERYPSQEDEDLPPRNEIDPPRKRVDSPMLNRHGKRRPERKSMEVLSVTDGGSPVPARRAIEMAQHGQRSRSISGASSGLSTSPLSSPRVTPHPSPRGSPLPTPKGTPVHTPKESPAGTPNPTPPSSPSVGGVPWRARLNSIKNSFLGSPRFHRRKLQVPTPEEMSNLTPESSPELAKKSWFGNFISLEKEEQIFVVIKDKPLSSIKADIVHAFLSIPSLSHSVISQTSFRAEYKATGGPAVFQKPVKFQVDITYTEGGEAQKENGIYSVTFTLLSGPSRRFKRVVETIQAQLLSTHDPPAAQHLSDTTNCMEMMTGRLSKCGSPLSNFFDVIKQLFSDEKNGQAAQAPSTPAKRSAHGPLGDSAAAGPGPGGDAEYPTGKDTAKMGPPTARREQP

One experiment deals with ABL2 (human) (UniProt P42684). Nature of the experiment: radiometric filter-binding kinase assay, Kinase HotSpot. To be noted: compound 0.5 µM; ATP 10 µM.
Usually residual activity stands for the signal under treatment as a percentage of the control signal. With `Cn1cnc2cc3c(Nc4cccc(Br)c4)ncnc3cc21`, the residual activity was 37%.
Same read-out and setting: under `O=C1Nc2ccccc2/C1=C1\Nc2ccccc2\C1=N/O` stands 60.3%; under `O=C(Nc1cccc(Nc2cc(Nc3cccc(C(F)(F)F)c3)ncn2)c1)C1CC1`, 100%.

The target of the next experiment is ACVR1 (human) (UniProt Q04771). Described as above. To be noted: compound 0.5 µM; ATP 10 µM.
Turning to `Cn1cnc2cc3c(Nc4cccc(Br)c4)ncnc3cc21`, the residual activity came to 109%.
`O=C1Nc2ccccc2/C1=C1\Nc2ccccc2\C1=N/O`: the residual activity was 112%.
The same measure, in the same setting: under `O=C(Nc1cccc(Nc2cc(Nc3cccc(C(F)(F)F)c3)ncn2)c1)C1CC1` stands 103%.

Another experiment concerns the target BRSK2 (human) (UniProt Q8IWQ3). The experiment is described as above. To be noted: compound 0.5 µM; ATP 10 µM.
For `Cn1cnc2cc3c(Nc4cccc(Br)c4)ncnc3cc21`, the residual activity was found to be 88.6%.
The same measure, in the same setting: under `O=C1Nc2ccccc2/C1=C1\Nc2ccccc2\C1=N/O` stands 28%; under `O=C(Nc1cccc(Nc2cc(Nc3cccc(C(F)(F)F)c3)ncn2)c1)C1CC1`, 95.8%.

A further experiment concerns the target CDC42BPB (human) (UniProt Q9Y5S2). Described as above. The following applies: compound 0.5 µM; ATP 10 µM.
With `Cn1cnc2cc3c(Nc4cccc(Br)c4)ncnc3cc21`, the residual activity worked out at 104%.
On the same count and under the same terms, next, `O=C1Nc2ccccc2/C1=C1\Nc2ccccc2\C1=N/O`: 99.5%; `O=C(Nc1cccc(Nc2cc(Nc3cccc(C(F)(F)F)c3)ncn2)c1)C1CC1`: 97.4%.

For a further experiment, the target named is CDK6 CCND3 (human) (UniProt P30281+Q00534). The experiment is described as above. The following applies: compound 0.5 µM; ATP 10 µM.
Take `Cn1cnc2cc3c(Nc4cccc(Br)c4)ncnc3cc21`: the residual activity was determined as 107%.
On the same count and under the same terms, under `O=C1Nc2ccccc2/C1=C1\Nc2ccccc2\C1=N/O` stands 26.1%; under `O=C(Nc1cccc(Nc2cc(Nc3cccc(C(F)(F)F)c3)ncn2)c1)C1CC1`, 102%.

The target of the next experiment is CHEK1 (human) (UniProt O14757). The experiment is described as above. To be noted: compound 0.5 µM; ATP 10 µM.
Sequence of CHEK1 (human) (O14757 whole entry, looked up): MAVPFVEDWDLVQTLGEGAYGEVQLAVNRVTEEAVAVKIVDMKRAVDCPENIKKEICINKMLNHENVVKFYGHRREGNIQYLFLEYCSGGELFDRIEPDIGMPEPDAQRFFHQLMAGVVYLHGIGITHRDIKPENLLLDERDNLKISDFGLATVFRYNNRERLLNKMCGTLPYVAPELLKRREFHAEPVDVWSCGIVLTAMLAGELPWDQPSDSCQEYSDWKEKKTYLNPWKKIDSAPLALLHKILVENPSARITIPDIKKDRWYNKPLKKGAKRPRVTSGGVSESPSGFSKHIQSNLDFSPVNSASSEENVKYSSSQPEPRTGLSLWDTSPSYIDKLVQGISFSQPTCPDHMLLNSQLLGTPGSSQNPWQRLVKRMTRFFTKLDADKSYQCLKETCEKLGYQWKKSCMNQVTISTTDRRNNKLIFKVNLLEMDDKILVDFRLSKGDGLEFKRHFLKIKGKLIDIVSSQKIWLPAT
In the case of `Cn1cnc2cc3c(Nc4cccc(Br)c4)ncnc3cc21`, the residual activity was 113%.
Same read-out and setting: next, `O=C1Nc2ccccc2/C1=C1\Nc2ccccc2\C1=N/O`: 65.3%; `O=C(Nc1cccc(Nc2cc(Nc3cccc(C(F)(F)F)c3)ncn2)c1)C1CC1`: 105%.

The next experiment concerns the target CSNK1D (human) (UniProt P48730). Described as above. The following applies: compound 0.5 µM; ATP 10 µM.
In the case of `Cn1cnc2cc3c(Nc4cccc(Br)c4)ncnc3cc21`, the residual activity came to 93.9%.
As for `O=C1Nc2ccccc2/C1=C1\Nc2ccccc2\C1=N/O`, the residual activity is 39.3%.
On the same count and under the same terms, next, `O=C(Nc1cccc(Nc2cc(Nc3cccc(C(F)(F)F)c3)ncn2)c1)C1CC1`: 98.9%.

Another experiment deals with CSNK1G1 (human) (UniProt Q9HCP0). The description is as above. The following applies: compound 0.5 µM; ATP 10 µM.
For the compound `Cn1cnc2cc3c(Nc4cccc(Br)c4)ncnc3cc21`, the residual activity was determined as 104%.
Same read-out and setting: next, `O=C1Nc2ccccc2/C1=C1\Nc2ccccc2\C1=N/O`: 86.8%; `O=C(Nc1cccc(Nc2cc(Nc3cccc(C(F)(F)F)c3)ncn2)c1)C1CC1`: 94.8%.

The target in another experiment is DYRK1A (human) (UniProt Q13627). The experiment is described as above. To be noted: compound 0.5 µM; ATP 10 µM.
Turning to `Cn1cnc2cc3c(Nc4cccc(Br)c4)ncnc3cc21`, the residual activity was determined as 106%.
Same read-out and setting: under `O=C1Nc2ccccc2/C1=C1\Nc2ccccc2\C1=N/O` stands 105%; under `O=C(Nc1cccc(Nc2cc(Nc3cccc(C(F)(F)F)c3)ncn2)c1)C1CC1`, 104%.

The next experiment addresses DYRK2 (human) (UniProt Q92630). The experiment is described as above. To be noted: compound 0.5 µM; ATP 10 µM.
For the compound `Cn1cnc2cc3c(Nc4cccc(Br)c4)ncnc3cc21`, the residual activity worked out at 95.5%.
Still for that read-out and setting: under `O=C1Nc2ccccc2/C1=C1\Nc2ccccc2\C1=N/O` stands 79.1%.
Take `O=C(Nc1cccc(Nc2cc(Nc3cccc(C(F)(F)F)c3)ncn2)c1)C1CC1`: the residual activity is 99.9%.

The target of a further experiment is EPHA8 (human) (UniProt P29322). The description is as above. To be noted: compound 0.5 µM; ATP 10 µM.
Sequence of EPHA8 (human) (P29322 whole entry, looked up): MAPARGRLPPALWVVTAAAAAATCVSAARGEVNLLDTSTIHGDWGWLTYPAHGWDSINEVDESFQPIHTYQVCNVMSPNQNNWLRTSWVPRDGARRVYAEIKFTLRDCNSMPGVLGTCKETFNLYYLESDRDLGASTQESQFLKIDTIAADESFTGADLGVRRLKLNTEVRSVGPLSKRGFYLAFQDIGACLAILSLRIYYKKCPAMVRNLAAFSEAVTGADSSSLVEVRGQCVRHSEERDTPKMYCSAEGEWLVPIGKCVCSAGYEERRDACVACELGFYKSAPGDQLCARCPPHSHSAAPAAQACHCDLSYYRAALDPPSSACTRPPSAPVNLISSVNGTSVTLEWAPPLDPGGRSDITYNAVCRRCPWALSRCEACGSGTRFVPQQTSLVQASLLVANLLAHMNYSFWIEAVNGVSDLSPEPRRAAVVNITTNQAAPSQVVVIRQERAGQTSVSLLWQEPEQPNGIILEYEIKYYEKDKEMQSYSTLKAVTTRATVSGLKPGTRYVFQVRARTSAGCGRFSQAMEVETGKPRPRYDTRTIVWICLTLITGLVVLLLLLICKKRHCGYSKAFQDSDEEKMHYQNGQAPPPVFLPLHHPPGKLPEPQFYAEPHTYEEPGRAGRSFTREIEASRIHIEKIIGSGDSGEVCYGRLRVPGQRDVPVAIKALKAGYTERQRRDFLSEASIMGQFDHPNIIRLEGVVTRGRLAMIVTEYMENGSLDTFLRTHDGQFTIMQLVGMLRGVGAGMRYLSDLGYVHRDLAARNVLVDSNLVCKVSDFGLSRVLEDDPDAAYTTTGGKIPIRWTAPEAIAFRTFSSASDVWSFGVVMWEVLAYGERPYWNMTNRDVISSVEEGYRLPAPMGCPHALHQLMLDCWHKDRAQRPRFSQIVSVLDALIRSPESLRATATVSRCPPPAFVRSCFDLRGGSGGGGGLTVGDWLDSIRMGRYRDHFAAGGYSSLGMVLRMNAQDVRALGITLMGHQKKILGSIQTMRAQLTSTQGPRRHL
Consider `Cn1cnc2cc3c(Nc4cccc(Br)c4)ncnc3cc21`, for which the residual activity was determined as 85.4%.
On the same count and under the same terms, under `O=C1Nc2ccccc2/C1=C1\Nc2ccccc2\C1=N/O` stands 91.1%; under `O=C(Nc1cccc(Nc2cc(Nc3cccc(C(F)(F)F)c3)ncn2)c1)C1CC1`, 103%.

The target in a further experiment is EPHB1 (human) (UniProt P54762). Described as above. To be noted: compound 0.5 µM; ATP 10 µM.
Consider `Cn1cnc2cc3c(Nc4cccc(Br)c4)ncnc3cc21`, for which the residual activity is 72.2%.
As for `O=C1Nc2ccccc2/C1=C1\Nc2ccccc2\C1=N/O`, the residual activity was 86.2%.
Still for that read-out and setting: under `O=C(Nc1cccc(Nc2cc(Nc3cccc(C(F)(F)F)c3)ncn2)c1)C1CC1` stands 100%.

A further experiment has as its target ERBB2 (human) (UniProt P04626). The description is as above. The following applies: compound 0.5 µM; ATP 10 µM.
As for `Cn1cnc2cc3c(Nc4cccc(Br)c4)ncnc3cc21`, the residual activity stood at 47.4%.
The same measure, in the same setting: under `O=C1Nc2ccccc2/C1=C1\Nc2ccccc2\C1=N/O` stands 97.9%; under `O=C(Nc1cccc(Nc2cc(Nc3cccc(C(F)(F)F)c3)ncn2)c1)C1CC1`, 82.5%.

Another experiment addresses FES (human) (UniProt P07332). The description is as above. The following applies: compound 0.5 µM; ATP 10 µM.
Turning to `Cn1cnc2cc3c(Nc4cccc(Br)c4)ncnc3cc21`, the residual activity was determined as 101%.
On the same count and under the same terms, next, `O=C1Nc2ccccc2/C1=C1\Nc2ccccc2\C1=N/O`: 92.4%.
Still for that read-out and setting: next, `O=C(Nc1cccc(Nc2cc(Nc3cccc(C(F)(F)F)c3)ncn2)c1)C1CC1`: 101%.

A further experiment deals with FLT1 (human) (UniProt P17948). The description is as above. The following applies: compound 0.5 µM; ATP 10 µM.
For the compound `Cn1cnc2cc3c(Nc4cccc(Br)c4)ncnc3cc21`, the residual activity turned out to be 77.4%.
Take `O=C1Nc2ccccc2/C1=C1\Nc2ccccc2\C1=N/O`: the residual activity is 73.6%.
Same read-out and setting: under `O=C(Nc1cccc(Nc2cc(Nc3cccc(C(F)(F)F)c3)ncn2)c1)C1CC1` stands 99.4%.

The next experiment has as its target HIPK1 (human) (UniProt Q86Z02). The experiment is described as above. To be noted: compound 0.5 µM; ATP 10 µM.
As for `Cn1cnc2cc3c(Nc4cccc(Br)c4)ncnc3cc21`, the residual activity was determined as 108%.
On the same count and under the same terms, next, `O=C1Nc2ccccc2/C1=C1\Nc2ccccc2\C1=N/O`: 98.9%.
Same read-out and setting: under `O=C(Nc1cccc(Nc2cc(Nc3cccc(C(F)(F)F)c3)ncn2)c1)C1CC1` stands 99.7%.

The next experiment has as its target HIPK3 (human) (UniProt Q9H422). Described as above. To be noted: compound 0.5 µM; ATP 10 µM.
For `Cn1cnc2cc3c(Nc4cccc(Br)c4)ncnc3cc21`, the residual activity was found to be 107%.
Turning to `O=C1Nc2ccccc2/C1=C1\Nc2ccccc2\C1=N/O`, the residual activity stood at 89.2%.
On the same count and under the same terms, under `O=C(Nc1cccc(Nc2cc(Nc3cccc(C(F)(F)F)c3)ncn2)c1)C1CC1` stands 97%.

Another experiment has as its target IKBKE (human) (UniProt Q14164). The description is as above. The following applies: compound 0.5 µM; ATP 10 µM.
Take `Cn1cnc2cc3c(Nc4cccc(Br)c4)ncnc3cc21`: the residual activity turned out to be 98.7%.
Same read-out and setting: next, `O=C1Nc2ccccc2/C1=C1\Nc2ccccc2\C1=N/O`: 75.1%; `O=C(Nc1cccc(Nc2cc(Nc3cccc(C(F)(F)F)c3)ncn2)c1)C1CC1`: 97.7%.

The target of another experiment is INSRR (human) (UniProt P14616). The experiment is described as above. The following applies: compound 0.5 µM; ATP 10 µM.
Sequence of INSRR (human) (P14616 whole entry, looked up): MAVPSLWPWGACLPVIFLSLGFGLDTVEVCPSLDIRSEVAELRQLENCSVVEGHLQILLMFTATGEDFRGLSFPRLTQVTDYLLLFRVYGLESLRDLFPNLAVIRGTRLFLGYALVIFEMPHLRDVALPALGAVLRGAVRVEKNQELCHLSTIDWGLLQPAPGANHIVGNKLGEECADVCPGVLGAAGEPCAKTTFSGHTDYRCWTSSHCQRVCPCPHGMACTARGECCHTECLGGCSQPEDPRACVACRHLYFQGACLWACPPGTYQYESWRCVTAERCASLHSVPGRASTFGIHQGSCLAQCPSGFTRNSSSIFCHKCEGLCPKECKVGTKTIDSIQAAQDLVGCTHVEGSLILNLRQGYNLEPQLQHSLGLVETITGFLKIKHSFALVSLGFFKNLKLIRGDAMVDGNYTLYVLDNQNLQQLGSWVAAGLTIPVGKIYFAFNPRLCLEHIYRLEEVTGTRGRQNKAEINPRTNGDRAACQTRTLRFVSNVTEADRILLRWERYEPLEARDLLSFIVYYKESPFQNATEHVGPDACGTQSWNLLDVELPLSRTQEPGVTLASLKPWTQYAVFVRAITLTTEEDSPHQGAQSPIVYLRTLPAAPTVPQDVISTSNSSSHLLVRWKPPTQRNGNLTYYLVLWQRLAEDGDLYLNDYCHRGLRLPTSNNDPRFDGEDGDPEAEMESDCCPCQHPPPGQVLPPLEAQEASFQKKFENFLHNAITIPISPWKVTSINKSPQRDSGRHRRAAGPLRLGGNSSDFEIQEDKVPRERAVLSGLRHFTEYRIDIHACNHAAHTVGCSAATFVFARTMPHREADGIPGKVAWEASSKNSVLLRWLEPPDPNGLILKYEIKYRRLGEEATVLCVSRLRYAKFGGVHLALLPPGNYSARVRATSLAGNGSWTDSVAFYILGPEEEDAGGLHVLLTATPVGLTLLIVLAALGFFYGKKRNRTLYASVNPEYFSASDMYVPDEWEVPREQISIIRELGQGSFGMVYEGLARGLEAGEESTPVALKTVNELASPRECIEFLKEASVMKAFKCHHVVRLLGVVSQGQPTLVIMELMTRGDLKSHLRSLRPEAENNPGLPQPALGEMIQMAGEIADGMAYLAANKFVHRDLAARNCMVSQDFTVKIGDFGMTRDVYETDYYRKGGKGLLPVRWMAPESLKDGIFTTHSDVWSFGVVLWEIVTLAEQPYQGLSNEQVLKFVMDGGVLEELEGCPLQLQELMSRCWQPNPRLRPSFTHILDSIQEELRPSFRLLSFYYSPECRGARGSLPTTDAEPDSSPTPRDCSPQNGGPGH
For `Cn1cnc2cc3c(Nc4cccc(Br)c4)ncnc3cc21`, the residual activity was found to be 92.1%.
In the case of `O=C1Nc2ccccc2/C1=C1\Nc2ccccc2\C1=N/O`, the residual activity was 35.7%.
The same measure, in the same setting: next, `O=C(Nc1cccc(Nc2cc(Nc3cccc(C(F)(F)F)c3)ncn2)c1)C1CC1`: 101%.

A further experiment deals with ITK (human) (UniProt Q08881). The description is as above. To be noted: compound 0.5 µM; ATP 10 µM.
Turning to `Cn1cnc2cc3c(Nc4cccc(Br)c4)ncnc3cc21`, the residual activity stood at 102%.
On to `O=C1Nc2ccccc2/C1=C1\Nc2ccccc2\C1=N/O`, for which the residual activity turned out to be 53%.
Still for that read-out and setting: under `O=C(Nc1cccc(Nc2cc(Nc3cccc(C(F)(F)F)c3)ncn2)c1)C1CC1` stands 97.2%.

The next experiment addresses MAP3K10 (human) (UniProt Q02779). The experiment is described as above. To be noted: compound 0.5 µM; ATP 10 µM.
In the case of `Cn1cnc2cc3c(Nc4cccc(Br)c4)ncnc3cc21`, the residual activity was 94%.
Still for that read-out and setting: under `O=C1Nc2ccccc2/C1=C1\Nc2ccccc2\C1=N/O` stands 95.2%; under `O=C(Nc1cccc(Nc2cc(Nc3cccc(C(F)(F)F)c3)ncn2)c1)C1CC1`, 101%.
